Paper PMC4780679 (Inorganic chemistry, 2015)

Biological target: HydG (So HydG, WT HydG) (Shewanella oneidensis, UniProt Q8EAH9)
Assay: X-band CW EPR of the [4Fe-4S]RS cluster
Assay type: binding
Settings: pH 7.5, 10 K; [4Fe-4S]RS cluster site

C[S+](CC[C@H](N)C(=O)O)C[C@H]1O[C@@H](n2cnc3c(N)ncnc32)[C@H](O)[C@@H]1O (stereo partly drawn) [SAM, S-adenosyl-L-methionine]
X-band CW EPR of the [4Fe-4S]RS cluster: interaction between the HydG [4Fe–4S]RS cluster and the substrates, Tyr or SAM
